Experiments:
hyperlipidämische Mäuse = experiment: Lipid-lowering effect in hyperlipidaemic mice (method analogous to Turner, Screening Methods in Pharmacology, and Garattini et al.); type: in vivo
Procedure: Die lipidsenkende Wirkung von N. (4,6-Dimethoxy-5-pyrimidyl)-thioharnstoff wurde an hyperliprdämischen Mausen analog einer Untersuchungsmethode, wie in "Screening Methods in Pharmacology", Robert A. Turner, 1965, Academic Press, New York and London, und Garattini et al, Arzneimittelforschung 9, 206 (1959), angegeben, untersucht. Die Verbindung wurde in einer Menge von 10 mg/kg peroral verabreicht. Es wurde eine Senkung des Cholesterinspiegels von 25 % und eine Senkung der Triglyceride von 27% erzielt.
(§1) Es wurde die lipid- und blutdrucksenkende Wirkung von N-(2,4-DimethoxY-5-pyrimidyl)-thioharnstoff untersucht. Als Yersuchsziere. wurden hyperlipidämische Mäuse und spontan hypertensive Ratten verwendet.
Bei den Mäusen wurde eine Verabreichungsdosis von 100 mg/ kg peroral verwendet, wobei eine Senkung des Cholesterinspiegels von 38 % und eine Senkung der Triglyceride von 49 % erreicht wurde.

[1] = tested on: spontan hypertensive Ratten; experiment: Blood-pressure-lowering effect in spontaneously hypertensive rats; type: in vivo; conditions: 30 mg/kg peroral
Procedure: as §1
Bei den Ratten wurde eine Dosis von 30 mg/kg peroral verabreicht, wobei eine Blutdrucksenkung von 30 % erzielt wurde.
Es wurde die blutdrucksenkende Wirkung von N-(4,6-Dimethoxy-2-methyl-5-pyrimidyl)-thioharnstoff bei spontan hypertensiven Ratten untersucht. Den Ratten wurde die Verbindung in einer Dosis von 30 mg/kg peroral verabreicht. Damit wurde eine Blutdrucksenkung von 30 % erzielt.

Structure (SMILES) | Senkung der Triglyceride (hyperlipidämische Mäuse; 100 mg/kg peroral) [%] | Senkung des Cholesterinspiegels (hyperlipidämische Mäuse; 100 mg/kg peroral) [%] | Blutdrucksenkung [1] [%] | Senkung der Triglyceride (hyperlipidämische Mäuse; 10 mg/kg peroral) [%] | Senkung des Cholesterinspiegels (hyperlipidämische Mäuse; 10 mg/kg peroral) [%]
COc1ncc(NC(N)=S)c(OC)n1 [N-(2,4-Dimethoxy-5-pyrimidyl)-thioharnstoff] | 49 | 38 | 30 | – | –
COc1nc(C)nc(OC)c1NC(N)=S [N-(4,6-Dimethoxy-2-methyl-5-pyrimidyl)-thioharnstoff] | – | – | 30 | – | –
COc1ncnc(OC)c1NC(N)=S [N-(4,6-Dimethoxy-5-pyrimidyl)-thioharnstoff] | – | – | – | 27 | 25
